The record followed here is ChEMBL document CHEMBL1201862, “PubChem BioAssay data set” (2004).

Calls of active or inactive are those of the source.

For assay [1], the target named is Hexokinase (Trypanosoma brucei, UniProt Q38C41). Briefly: Confirmation assay for inhibitors of Trypanosoma brucei hexokinase 1-Analogue-first series. [Related pubchem assays (depositor defined):AID1430, AID1632, AID2516, AID2560, AID2579, AID2600, AID449725, AID492951]. The format is functional.
Assay [2] is described as follows: MC4R antagonists, dose response, counter-screen for LGR2 antagonist project, cell-based, plate reader, cherry pick (AID 743444).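 Further: transfected HEK 293 cells stimulated with alpha-MSH peptide; potency of inhibitors of the alpha-MSH evoked signal.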 The format is functional. Background: A counterscreen serves to expose hits that act by an unwanted route or on another target.
Assay [3] can be described thus: CEM21 lymphoblast cell cytotoxicity, dose response, cytotoxicity control for viral fusion inhibitor project, CellTiter-Glo luminescence, cherry-picked (AID 652042).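 Further: potency for signal decrease meaning cytotoxicity.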 The class given is functional, cell-based.
A short description of assay [4]: LGR2 antagonists, dose response, cell-based, HEK293, CRE-luciferase reporter, cherry pick, set 2 (AID 743343).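 Further: transfected cells were stimulated with diluted bursicon conditioned medium after compound addition.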 The class given is functional.
A short description of assay [5]: cytotoxicity in HEK-293T cells, dose response, cytotoxicity control for TCR NF-kB inhibitor project, luminescence, T-cell screen hits (AID 489026).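 Further: cells exposed to compound about 14 hours before the viability readout.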 The class given is functional, cell-based.
Assay [6] is described as follows: cytotoxicity in HPDE-C7 cells, cell-based, fluorescence, HTS (AID 430). The class given is functional. As to conditions: Homo sapiens.
Assay [7] concerns the target Neurotensin receptor type 1 (Homo sapiens, UniProt P30989). The class given is functional.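 Further: Image-based confirmatory dose-response assay measuring agonist activity at NTR1; NTR1-expressing U2OS osteosarcoma cells imaged for beta-arrestin GFP spot formation; agonist potency where compounds increase beta-arrestin recruitment.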
The nature of assay [8]: HepG2 cell cytotoxicity, dose response, cytotoxicity control, plate reader, cherry-pick, antagonist series (AID 743416). The class given is functional, cell-based.
A short description of assay [9]: HEK293 cell cytotoxicity, dose response, cytotoxicity control, plate reader, cherry-picked samples (AID 743446). The format is functional, cell-based.
The nature of assay [10]: off-target signal loss in HeLa-CEM21 co-culture – HeLa F-luc CTL cells, cherry-picked, counter-screen for HIV-1 Env fusion inhibitor project, dose response (AID 652040).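 Further: potency for signal decrease marking cytotoxic or nonspecific inhibition.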 The format is functional, cell-based.
The nature of assay [11]: cytotoxicity in KRAS-transformed pancreatic duct cells, primary screen, cell-based, fluorescence, HTS (AID 431).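 Further: cell line used: HPDE-C7K.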 The class given is functional. As to conditions: Homo sapiens.
Assay [12] is described as follows: cells.
Assay [13] has as its target T1, Voltage-gated N-type calcium channel alpha-1B subunit/Amyloid beta A4 precursor protein-binding family A member 1 (Homo sapiens, UniProt Q00975+Q02410). The class given is protein assay.
Assay [14] has as its target T1, Voltage-gated N-type calcium channel alpha-1B subunit/Amyloid beta A4 precursor protein-binding family A member 1. The class given is protein assay. The source holds these as a separate data set.
Assay [15] addresses DNA dC->dU-editing enzyme APOBEC-3A (Homo sapiens, UniProt P31941). As to the kind of experiment: Dose Response confirmation of small molecule APOBEC3A DNA Deaminase Inhibitors via a fluorescence-based single-stranded DNA deaminase assay. [Related pubchem assays (depositor defined):AID493011, AID493024]. The format is functional.
In assay [16] the target is DNA dC->dU-editing enzyme APOBEC-3G (Homo sapiens, UniProt Q9HC16). The class given is functional.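 Further: Dose-response counterscreen measuring inhibition of APOBEC3G DNA deaminase activity, run while confirming APOBEC3A inhibitors.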
Sequence of DNA dC->dU-editing enzyme APOBEC-3G (Q9HC16 whole entry): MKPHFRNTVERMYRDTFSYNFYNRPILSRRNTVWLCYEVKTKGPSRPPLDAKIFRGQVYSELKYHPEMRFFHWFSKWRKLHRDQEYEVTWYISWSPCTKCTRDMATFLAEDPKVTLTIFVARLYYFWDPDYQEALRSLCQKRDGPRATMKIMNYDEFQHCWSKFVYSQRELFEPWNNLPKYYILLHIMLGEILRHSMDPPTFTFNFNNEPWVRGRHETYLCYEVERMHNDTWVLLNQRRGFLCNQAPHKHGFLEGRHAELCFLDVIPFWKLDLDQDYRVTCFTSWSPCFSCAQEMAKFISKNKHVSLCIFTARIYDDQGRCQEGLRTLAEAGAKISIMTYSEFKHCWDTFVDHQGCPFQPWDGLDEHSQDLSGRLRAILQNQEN
For assay [17], the target named is T2, Eukaryotic translation initiation factor 2-alpha kinase 3 (Homo sapiens, UniProt Q9NZJ5).
T2 sequence (Q9NZJ5 whole entry): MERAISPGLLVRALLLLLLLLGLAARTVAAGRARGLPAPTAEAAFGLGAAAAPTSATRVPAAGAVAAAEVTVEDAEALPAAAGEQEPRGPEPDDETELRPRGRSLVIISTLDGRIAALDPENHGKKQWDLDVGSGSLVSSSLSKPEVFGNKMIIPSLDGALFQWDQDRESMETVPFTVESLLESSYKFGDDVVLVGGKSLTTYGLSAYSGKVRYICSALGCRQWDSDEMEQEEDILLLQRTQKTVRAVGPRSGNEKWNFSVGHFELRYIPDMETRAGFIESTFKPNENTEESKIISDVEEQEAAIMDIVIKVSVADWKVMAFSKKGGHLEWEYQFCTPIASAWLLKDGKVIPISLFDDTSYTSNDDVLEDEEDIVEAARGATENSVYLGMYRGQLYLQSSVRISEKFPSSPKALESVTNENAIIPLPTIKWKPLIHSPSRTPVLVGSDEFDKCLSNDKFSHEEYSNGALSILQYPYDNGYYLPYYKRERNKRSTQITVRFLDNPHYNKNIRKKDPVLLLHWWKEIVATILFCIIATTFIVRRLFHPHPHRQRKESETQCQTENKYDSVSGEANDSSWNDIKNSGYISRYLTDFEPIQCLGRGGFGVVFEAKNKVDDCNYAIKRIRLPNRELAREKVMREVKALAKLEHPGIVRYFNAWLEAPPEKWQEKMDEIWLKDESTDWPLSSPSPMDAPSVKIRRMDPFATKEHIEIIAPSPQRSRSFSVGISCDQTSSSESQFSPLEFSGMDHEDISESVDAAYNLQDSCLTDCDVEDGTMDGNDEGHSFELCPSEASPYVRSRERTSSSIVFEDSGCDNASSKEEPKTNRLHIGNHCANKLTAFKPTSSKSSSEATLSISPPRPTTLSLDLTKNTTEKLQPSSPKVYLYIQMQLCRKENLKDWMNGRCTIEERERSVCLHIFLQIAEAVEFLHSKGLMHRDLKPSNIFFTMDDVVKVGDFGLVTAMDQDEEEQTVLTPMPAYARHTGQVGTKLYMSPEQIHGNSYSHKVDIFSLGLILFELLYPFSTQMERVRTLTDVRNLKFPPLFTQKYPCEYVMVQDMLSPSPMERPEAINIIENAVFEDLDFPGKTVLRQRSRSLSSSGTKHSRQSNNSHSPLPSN
As to the kind of experiment: Dose response cell-based high-throughput screening assay to measure PERK inhibition. [Related pubchem assays: 1416 ]. The format is functional.

The target in assay [18] is T2, Eukaryotic translation initiation factor 2-alpha kinase 3. Briefly: Counterscreen assay for PERK inhibitors: Dose response cell-based high throughput screening assay to measure inhibition of PERK at 6 hours. [Related pubchem assays: 1522, 1416 ]. The class given is functional.
Assay [19] addresses T3, Streptokinase A (Streptococcus pyogenes serotype M1, UniProt P10520).
T3 sequence (P10520 whole entry): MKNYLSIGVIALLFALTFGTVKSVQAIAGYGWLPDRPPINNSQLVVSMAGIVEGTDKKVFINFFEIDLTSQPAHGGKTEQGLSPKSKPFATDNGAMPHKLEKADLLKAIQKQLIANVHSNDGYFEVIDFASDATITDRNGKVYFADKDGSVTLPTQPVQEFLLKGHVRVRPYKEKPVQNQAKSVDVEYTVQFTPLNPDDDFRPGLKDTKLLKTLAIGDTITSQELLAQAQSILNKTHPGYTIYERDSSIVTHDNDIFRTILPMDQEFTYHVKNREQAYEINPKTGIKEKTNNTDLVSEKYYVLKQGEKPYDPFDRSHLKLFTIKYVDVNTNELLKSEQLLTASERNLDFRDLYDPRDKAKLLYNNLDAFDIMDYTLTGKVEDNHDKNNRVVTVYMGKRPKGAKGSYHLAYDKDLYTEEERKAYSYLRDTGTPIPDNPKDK
Briefly: S. pyogenes streptokinase expression inhibitors, potency, dose response, plasminogen activation absorbance, OD405 (AID 1914).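 Further: secreted streptokinase activity via plasminogen activation per viability signal from cell pellet.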 The format is functional, Streptococcus pyogenes M1 GAS.

For assay [20], the system named is Streptococcus sp. 'group A'. As to the kind of experiment: growth inhibition of control SK(-) GAS strain, dose response, counter-screen for streptokinase expression inhibitor project, luminescence, kanamycin, BacTiterGlo, confirmation (AID 1900). The format is functional, organism-based.
Assay [21] concerns Streptococcus. Briefly: Group A Streptococcus viability loss, dose response, counter-screen for streptokinase expression inhibitor project, luminescence, BacTiterGlo (AID 1915).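 Further: potency for reduction of bacterial viability or growth.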 The class given is functional, organism-based.
The nature of assay [22]: Luminescence Cell-Based Dose Retest to Confirm Inhibitors of Cancer Stem Cells. [Related pubchem assays (depositor defined):AID2717, AID2721]. The format is functional. As to conditions: Homo sapiens.
Assay [23] concerns the target Melanin-concentrating hormone receptor 1 (Homo sapiens, UniProt Q99705). As to the kind of experiment: Fluorescence-based counterscreen for antagonists of the G-protein coupled receptor 7 (GPR7): cell-based high throughput dose response assay to identify antagonists of the melanin-concentrating hormone receptor 1 (MCHR1). The format is functional.
The target in assay [24] is T4, Neuropeptides B/W receptor type 1 (Homo sapiens, UniProt P48145).
T4 sequence (P48145 whole entry): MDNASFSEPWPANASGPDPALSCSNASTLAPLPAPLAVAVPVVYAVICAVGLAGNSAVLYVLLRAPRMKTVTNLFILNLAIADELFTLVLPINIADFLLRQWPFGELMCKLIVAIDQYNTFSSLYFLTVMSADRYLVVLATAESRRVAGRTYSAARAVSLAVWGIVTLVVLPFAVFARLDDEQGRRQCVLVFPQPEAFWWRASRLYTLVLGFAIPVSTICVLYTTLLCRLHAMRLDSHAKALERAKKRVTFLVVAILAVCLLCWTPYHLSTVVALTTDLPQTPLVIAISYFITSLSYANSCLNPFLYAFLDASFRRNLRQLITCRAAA
As to the kind of experiment: Fluorescence-based dose response cell-based high throughput screening assay to identify antagonists of the G-protein coupled receptor 7 (GPR7). [Related pubchem assays: 1952 (Screening assay (GPR7 antagonists).), 1880 (Summary AID.)]. The format is functional.

Assay [25] has as its target Troponin, cardiac muscle (Homo sapiens, UniProt P19429+P45379+P63316). Briefly: Fluorescence-based biochemical high throughput dose response assay for activators of the calcium sensitivity of cardiac Regulated Thin Filaments (RTF). [Related pubchem assays (depositor defined):AID493008, AID493018, AID504382, AID504383]. The class given is protein-complex assay.
For assay [26], the system named is HeLa. Briefly: HeLa cell cytotoxicity, dose response, cytotoxicity control, 24 h, cherry-picked samples (AID 504726).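 Further: potency for cytotoxicity as loss of luminescence signal.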 The class given is functional, cell-based. As to conditions: Homo sapiens.
Assay [27] has as its target T5, Heat shock factor protein 1 (Mus musculus, UniProt P38532).
T5 sequence (P38532 whole entry): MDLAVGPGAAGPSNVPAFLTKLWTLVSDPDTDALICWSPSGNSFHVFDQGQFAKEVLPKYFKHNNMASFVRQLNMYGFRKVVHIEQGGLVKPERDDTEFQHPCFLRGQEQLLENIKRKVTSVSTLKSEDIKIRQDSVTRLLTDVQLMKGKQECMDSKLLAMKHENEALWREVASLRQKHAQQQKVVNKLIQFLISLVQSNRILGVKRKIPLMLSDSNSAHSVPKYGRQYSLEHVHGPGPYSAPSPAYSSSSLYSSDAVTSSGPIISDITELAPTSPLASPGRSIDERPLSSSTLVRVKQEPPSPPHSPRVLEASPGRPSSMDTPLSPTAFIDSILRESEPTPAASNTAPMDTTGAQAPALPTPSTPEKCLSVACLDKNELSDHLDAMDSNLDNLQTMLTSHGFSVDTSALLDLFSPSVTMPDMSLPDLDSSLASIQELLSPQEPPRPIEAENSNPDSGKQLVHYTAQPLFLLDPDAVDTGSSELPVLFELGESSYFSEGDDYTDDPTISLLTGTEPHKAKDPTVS
Briefly: HSF1 potentiators in luciferase reporter cells, confirmation, cell-based, NIH3T3, luminescence, dose retest (AID 435004).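 Further: stress induced by proteasome inhibitor MG132 added 30 min after compound; luciferase reporter driven by HSF1 response element in NIH3T3 cells; actives raise luminescence as potentiators of the MG132 stress response.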 The class given is functional. On the technique in general: Reporter assays use an easily measured gene product as a stand-in for the process of interest.

Sequence of Melanin-concentrating hormone receptor 1 (Q99705 whole entry): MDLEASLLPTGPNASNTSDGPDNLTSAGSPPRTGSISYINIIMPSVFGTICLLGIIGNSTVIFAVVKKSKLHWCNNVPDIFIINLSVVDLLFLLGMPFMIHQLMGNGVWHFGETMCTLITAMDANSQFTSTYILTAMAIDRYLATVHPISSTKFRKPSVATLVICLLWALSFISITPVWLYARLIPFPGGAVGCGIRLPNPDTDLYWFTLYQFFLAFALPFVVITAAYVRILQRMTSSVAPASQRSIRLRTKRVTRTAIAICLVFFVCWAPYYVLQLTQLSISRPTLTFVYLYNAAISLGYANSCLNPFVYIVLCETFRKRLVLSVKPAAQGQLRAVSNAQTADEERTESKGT
T1 sequence (Q00975 whole entry): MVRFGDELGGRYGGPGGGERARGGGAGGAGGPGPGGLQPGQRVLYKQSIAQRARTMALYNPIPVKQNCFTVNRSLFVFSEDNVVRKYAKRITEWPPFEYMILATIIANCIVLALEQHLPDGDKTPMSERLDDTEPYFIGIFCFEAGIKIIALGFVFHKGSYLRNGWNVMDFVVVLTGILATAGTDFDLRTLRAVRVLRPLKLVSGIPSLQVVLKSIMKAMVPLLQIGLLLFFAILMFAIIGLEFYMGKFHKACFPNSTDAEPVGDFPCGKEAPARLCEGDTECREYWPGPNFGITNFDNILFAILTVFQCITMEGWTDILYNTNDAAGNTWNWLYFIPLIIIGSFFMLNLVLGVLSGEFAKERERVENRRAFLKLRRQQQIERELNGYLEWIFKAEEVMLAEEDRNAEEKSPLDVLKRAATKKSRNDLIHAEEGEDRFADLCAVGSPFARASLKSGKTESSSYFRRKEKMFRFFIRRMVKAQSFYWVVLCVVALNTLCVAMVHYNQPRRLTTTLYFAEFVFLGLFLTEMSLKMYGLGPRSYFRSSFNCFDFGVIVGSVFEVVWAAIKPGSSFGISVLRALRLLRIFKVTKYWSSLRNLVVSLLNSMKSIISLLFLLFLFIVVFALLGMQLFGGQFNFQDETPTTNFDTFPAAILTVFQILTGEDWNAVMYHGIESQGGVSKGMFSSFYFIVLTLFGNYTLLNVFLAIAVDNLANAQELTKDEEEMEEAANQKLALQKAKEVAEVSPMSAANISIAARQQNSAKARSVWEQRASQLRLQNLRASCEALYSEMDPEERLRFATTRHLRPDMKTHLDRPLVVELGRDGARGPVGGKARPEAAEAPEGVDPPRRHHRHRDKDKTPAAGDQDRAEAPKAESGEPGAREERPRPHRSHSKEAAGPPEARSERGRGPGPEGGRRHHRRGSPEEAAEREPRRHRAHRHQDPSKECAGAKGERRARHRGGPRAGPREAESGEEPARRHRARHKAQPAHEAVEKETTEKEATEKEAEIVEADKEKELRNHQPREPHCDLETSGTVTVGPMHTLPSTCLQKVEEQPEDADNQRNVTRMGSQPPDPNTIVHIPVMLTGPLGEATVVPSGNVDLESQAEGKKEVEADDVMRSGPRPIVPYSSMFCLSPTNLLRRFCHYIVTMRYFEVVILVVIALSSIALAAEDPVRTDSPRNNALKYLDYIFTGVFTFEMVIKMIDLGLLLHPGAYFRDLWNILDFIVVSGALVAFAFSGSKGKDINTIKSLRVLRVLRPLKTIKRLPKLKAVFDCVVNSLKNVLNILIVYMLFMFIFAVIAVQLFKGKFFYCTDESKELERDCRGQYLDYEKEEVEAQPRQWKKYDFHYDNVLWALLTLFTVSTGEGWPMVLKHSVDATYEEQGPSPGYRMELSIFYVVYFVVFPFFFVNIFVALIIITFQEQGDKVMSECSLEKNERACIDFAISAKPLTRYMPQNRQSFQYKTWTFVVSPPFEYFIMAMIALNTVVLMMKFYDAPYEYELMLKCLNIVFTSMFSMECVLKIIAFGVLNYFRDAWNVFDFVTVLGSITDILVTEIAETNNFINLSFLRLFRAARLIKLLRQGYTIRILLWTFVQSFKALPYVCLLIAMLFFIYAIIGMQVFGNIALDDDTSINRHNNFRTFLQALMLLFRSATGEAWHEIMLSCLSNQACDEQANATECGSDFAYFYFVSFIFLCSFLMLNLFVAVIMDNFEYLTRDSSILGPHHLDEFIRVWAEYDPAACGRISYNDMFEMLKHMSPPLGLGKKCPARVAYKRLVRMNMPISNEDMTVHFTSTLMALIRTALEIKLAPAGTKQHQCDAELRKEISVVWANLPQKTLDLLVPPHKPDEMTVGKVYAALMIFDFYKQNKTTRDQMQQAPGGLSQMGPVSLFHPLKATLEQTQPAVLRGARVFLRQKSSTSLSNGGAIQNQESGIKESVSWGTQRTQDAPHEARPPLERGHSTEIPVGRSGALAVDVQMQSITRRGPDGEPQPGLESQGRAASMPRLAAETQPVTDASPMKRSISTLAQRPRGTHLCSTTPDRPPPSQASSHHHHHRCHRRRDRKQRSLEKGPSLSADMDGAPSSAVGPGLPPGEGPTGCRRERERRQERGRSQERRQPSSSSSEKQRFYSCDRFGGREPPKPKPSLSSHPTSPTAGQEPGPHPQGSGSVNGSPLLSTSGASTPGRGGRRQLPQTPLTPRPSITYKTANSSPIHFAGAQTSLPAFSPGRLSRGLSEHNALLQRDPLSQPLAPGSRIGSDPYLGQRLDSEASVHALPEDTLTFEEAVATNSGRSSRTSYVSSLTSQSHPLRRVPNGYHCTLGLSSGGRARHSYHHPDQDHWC
T1 sequence (Q02410 whole entry): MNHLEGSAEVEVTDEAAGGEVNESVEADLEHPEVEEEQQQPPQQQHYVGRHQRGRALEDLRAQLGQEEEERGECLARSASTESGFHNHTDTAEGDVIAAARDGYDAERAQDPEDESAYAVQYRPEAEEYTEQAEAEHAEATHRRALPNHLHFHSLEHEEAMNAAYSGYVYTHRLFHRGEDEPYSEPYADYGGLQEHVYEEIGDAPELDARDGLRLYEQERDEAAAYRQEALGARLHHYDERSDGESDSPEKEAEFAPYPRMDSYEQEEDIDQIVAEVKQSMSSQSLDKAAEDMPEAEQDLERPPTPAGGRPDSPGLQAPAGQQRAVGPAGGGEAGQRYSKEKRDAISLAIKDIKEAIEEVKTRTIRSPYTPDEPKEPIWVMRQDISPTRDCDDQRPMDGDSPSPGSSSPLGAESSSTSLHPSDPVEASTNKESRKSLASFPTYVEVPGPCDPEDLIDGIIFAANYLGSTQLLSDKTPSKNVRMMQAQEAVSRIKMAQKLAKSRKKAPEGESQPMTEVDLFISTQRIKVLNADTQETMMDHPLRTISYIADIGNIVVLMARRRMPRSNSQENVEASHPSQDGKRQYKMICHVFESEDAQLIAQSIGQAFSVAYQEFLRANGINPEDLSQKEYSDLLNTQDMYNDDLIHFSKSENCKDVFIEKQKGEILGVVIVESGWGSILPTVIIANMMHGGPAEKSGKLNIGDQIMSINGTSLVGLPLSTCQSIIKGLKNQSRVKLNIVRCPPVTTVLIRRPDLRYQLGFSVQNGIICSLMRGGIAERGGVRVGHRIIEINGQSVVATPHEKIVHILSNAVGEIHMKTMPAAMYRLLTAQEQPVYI
Sequence of Neurotensin receptor type 1 (P30989 whole entry): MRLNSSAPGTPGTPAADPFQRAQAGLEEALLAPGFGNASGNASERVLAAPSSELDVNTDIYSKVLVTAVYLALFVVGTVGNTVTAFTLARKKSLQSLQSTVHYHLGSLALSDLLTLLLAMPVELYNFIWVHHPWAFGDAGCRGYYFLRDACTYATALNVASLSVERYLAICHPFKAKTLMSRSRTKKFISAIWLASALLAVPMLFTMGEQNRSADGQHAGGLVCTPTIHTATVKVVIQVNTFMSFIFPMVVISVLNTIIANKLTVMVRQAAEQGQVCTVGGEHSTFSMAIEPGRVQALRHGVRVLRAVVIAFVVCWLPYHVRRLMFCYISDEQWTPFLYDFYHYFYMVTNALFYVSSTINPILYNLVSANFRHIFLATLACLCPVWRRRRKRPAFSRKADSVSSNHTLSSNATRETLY
Sequence of Hexokinase (Q38C41 whole entry): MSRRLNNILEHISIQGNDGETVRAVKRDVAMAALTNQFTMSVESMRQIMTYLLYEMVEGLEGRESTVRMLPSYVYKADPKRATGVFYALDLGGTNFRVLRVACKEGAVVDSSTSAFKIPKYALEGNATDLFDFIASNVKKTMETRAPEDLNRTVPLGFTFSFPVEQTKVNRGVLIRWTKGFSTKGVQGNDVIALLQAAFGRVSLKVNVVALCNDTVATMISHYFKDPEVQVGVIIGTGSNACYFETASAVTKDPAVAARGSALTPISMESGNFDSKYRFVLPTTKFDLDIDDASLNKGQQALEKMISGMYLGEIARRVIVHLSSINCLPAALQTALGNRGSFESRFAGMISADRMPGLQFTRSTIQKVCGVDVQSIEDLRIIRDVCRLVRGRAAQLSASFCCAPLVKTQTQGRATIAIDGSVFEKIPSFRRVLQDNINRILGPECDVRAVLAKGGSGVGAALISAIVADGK
Sequence of DNA dC->dU-editing enzyme APOBEC-3A (P31941 whole entry): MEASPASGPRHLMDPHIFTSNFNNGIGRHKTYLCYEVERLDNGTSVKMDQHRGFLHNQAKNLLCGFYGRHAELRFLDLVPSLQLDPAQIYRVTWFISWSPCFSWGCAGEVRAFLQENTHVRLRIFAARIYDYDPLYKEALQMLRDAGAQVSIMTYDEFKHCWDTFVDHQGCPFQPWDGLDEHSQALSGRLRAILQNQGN

Regarding `O=C(O)c1ccc(Cl)cc1NC(=O)c1coc2ccccc12`, the IC50 in assay [1] is > 25 µM (inactive).
As to `Cc1ccc(-n2ncc3c(N4CCN(c5ccccc5)CC4)ncnc32)c(C)c1`, the AC50 in assay [2] was 16.5 µM (active); in assay [3], 17.7 µM (active); in assay [4] it was 13.8 µM (active); in assay [8] it was 34.7 µM (active); in [9] it was 14.4 µM (active); in [10], 32.4 µM (active). The IC50 in [5] was 29.6 µM (inactive). Moreover, the concentration for a half-maximal effect (EC50) in [6] is 13.8 µM (active); in assay [7], 9.82 µM (active); in [11] it was 8.48 µM (active).
`C=C(C)C(=O)Nc1cccc(C2=NOC3(C2)C[C@@H](C(N)=O)N(C(=O)c2ccc(OC)cc2)C3)c1` (some centres undefined): the IC50 is 38.9 µM (active) in assay [12], > 56.8 µM (not active) in assay [13] and > 50 µM (inactive) in assay [14].
Turning to `Cn1c(CNC(=O)c2ccco2)nnc1SCC(=O)N1c2ccccc2Sc2ccccc21`, the IC50 in assay [15] is 4 µM (active); in assay [16], 5.8 µM (active).
As to `CCc1ccc(-n2c(SCC(=O)N3Cc4ccccc4CC3C(=O)O)nnc2-c2ccncc2)cc1` (centres undefined), the EC50 in assay [17] and in [18] was > 55.7 µM (not active) each time.
Regarding `O=c1/c(=C\c2cccc(O)c2)sc2nc(-c3ccccc3)c(-c3ccccc3)n12`, the EC50 is 4.22 µM (active) in assay [19], 3.01 µM (active) in assay [20], 51.1 µM (active) in [21] and 27.2 µM (inactive) in assay [7]. Moreover, the AC50 in assay [22] was 2.59 µM (active).
As to `NS(=O)(=O)c1ccc2nc(NC(=O)Nc3ccc(F)cc3)sc2c1`, the IC50 in assay [23] and in assay [24] was > 43.8 µM (not active) in each case.
On to `CC(=O)Nc1cc(Cl)ccc1C(=O)O`, for which the IC50 in assay [1] is > 25 µM (inactive).
In the case of `COC(=O)Cc1ccc(NC(S)=NNC(=O)C2CC2)cc1`, the EC50 in [17] and in assay [18] was > 55.7 µM (not active) in each case.
With `CC(C)Sc1nc2cc(Br)ccc2[nH]1`, in assay [25], the EC50 is > 71.4 µM (inactive).
As for `N#Cc1ccc(CSc2nnc(Cc3cccs3)n2Cc2ccco2)cc1`, the IC50 is on record as 23 µM (not active) in assay [23] and > 43.8 µM (not active) in assay [24].
For the molecule `Cn1c(=O)c2c(nc(N/N=C/c3ccc(OC(=O)c4ccco4)cc3)n2Cc2ccc(F)cc2)n(C)c1=O`, the AC50 in assay [26] was 43.7 µM (active). Besides, in assay [27], the EC50 was 3.74 µM (active).
Turning to `CSc1ncccc1C(=O)OCCCC(=O)c1ccc(F)cc1`, in assay [26], the AC50 was 91.9 µM (active).

For orientation: IC50 means the midpoint of a concentration-inhibition curve. The AC50 is the midpoint of the concentration-response curve, whichever way the signal moves. In general, EC50 refers to the concentration needed to bring the measured effect to its halfway point.
